Measured values taken from patent US20250011876A1, “EXTRACELLULAR RNA SIGNATURES OF MUTANT KRAS(G12C) CANCERS” (The Regents of the University of California, priority 2021, published 2025).

Columns and labels:
[1] = tested on: EVs secreted by H358 cells; assay: Nanoparticle Tracking Analysis of EV size, ExoTIC isolation; type: cell-based; conditions: ExoTIC-isolated EVs, H358, AMG 510 treatment
Description: To characterize exRNA profiles, EVs were isolated using two orthogonal approaches: affinity column extraction (ExoRNeasy) and size-based filtration (Exosome Total Isolation Chip: ExoTIC). Each EV isolation method captured distinct EV populations as determined by Nanoparticle Tracking Analysis (NTA) (FIGS. 5A and 5B) 18.19. The ExoTIC platform captured a low yield of EVs that fell within a size range matching that of exosomes (FIG. 5A).
The exRNA landscape varies based on EV subpopulations isolated by different approaches. We sought to investigate two orthogonal approaches to EV isolation, which yielded distinct EV populations with variable exRNA content. This highlights the importance of upstream EV isolation procedures before the exRNA sequencing pipeline. […] The significant shift in the maxima of the EV size distribution corresponding to AMG 510 treatment was accompanied by local maxima around particles of even smaller dimensions. Further EV size-fractionated exRNA sequencing will be necessary to determine the contribution of the different EV subpopulations to our exRNA data.
RNA Isolation & Purification. Total bulk RNA was isolated from H358 cells using Quick-RNA Mini-Prep kit (Zymogen). All RNA was quantified via NanoDrop-8000 Spectrophotometer. […] Extracted exosomal RNA were quantified via Qubit RNA HS assay kit (Thermo). […]

H358 3D spheroids = assay: H358 spheroid size/area; type: cell-based; conditions: 0.1 μM AMG 510
[2] = tested on: KRAS and phosphorylated ERK in NCI-H358 cells; conditions: cited from earlier work

| SMILES | EV size profile after treatment [1] | decrease of 3D spheroid size with respect to control (H358 3D spheroids) [%] | time at which abundance of KRAS and pERK begin to recover [2] [hours] |
| --- | --- | --- | --- |
| C=CC(=O)N1CCN(c2nc(=O)n(-c3c(C)ccnc3C(C)C)c3nc(-c4c(O)cccc4F)c(F)cc23)[C@@H](C)C1 [AMG 510, Sotorasib] | around 150 nm | 20 |  |
| C=CC(=O)N1CCN(c2ncnc3c(F)c(-c4c(O)cccc4F)c(Cl)cc23)CC1 [ARS1620] |  |  | 24 |
